Test results published in US20260327240A1, “1,4-CINEOLE DERIVATIVE AND INTERMEDIATE THEREOF, HERBICIDE CONTAINING SAID DERIVATIVE AS ACTIVE INGREDIENT, METHOD FOR USING HERBICIDE, AND METHOD FOR PREPARING AGROCHEMICAL COMPOSITION” (HOKKO CHEMICAL INDUSTRY CO., LTD., priority 2023, published 2026).

Key:
Assay type in all cases: in vivo
[1] = tested on: Echinochloa crus-galli var. formosensis; assay: Comparative Example: herbicidal effect test by application during growth period of paddy rice (three-leaf stage); settings: 504 h, 7.5 g per 10 ares, 21 days after application, triplicate, read-out: Weed inhibition rate (%)
Experimental: As an example, the herbicidal effect on Echinochloa crus-galli var. formosensis at the three-leaf stage was confirmed by the following method, and the results are specifically shown in Table 7 as a comparative example.
(§1) Herbicidal Effect Test by Application During Growth Period of Paddy Rice
Wagner pots with an area of […] were filled with paddy soil, followed by addition of water and incorporation of chemical fertilizer (N:P:K=16:16:16), after which puddling was performed. After that, 30 seeds of Echinochloa crus-galli var. formosensis were sown at a depth of 0 cm to 1 cm. Immediately after sowing, the pots were flooded and a water depth of approximately 3 cm was maintained. Subsequent management was conducted in a glass greenhouse. When Echinochloa crus-galli var. formosensis reached the three-leaf stage, an emulsifiable concentrate prepared according to Formulation Example 5 using the compound shown below was diluted with water, and a specified amount of the diluted solution was applied by dropper. The amount of the active ingredient to be applied was equivalent to 7.5 g per 10 ares. The test was conducted in triplicate for each chemical concentration group, and the weed inhibition rate (%) was determined 21 days after chemical application using the following formula (Math. 1).

[2] = tested on: Amaranthus viridis; assay: Test Example 7: herbicidal effect test by soil application in upland field; settings: 1 day after sowing, 7.5 g per 10 ares, 14 days after application
Experimental: (§2) Herbicidal Effect Test by Soil Application in Upland Field
(§3) Pots with an area of 36 cm^2 were filled with upland soil (alluvial loam), twenty seeds each of weeds of Digitaria ciliaris, Echinochloa crus-galli, Chenopodium album, and Amaranthus viridis were uniformly mixed with the top 1 cm layer of soil and the surface was lightly pressed down. One day after sowing, an emulsifiable concentrate prepared according to Formulation Example 5 using the compound shown below was diluted with water, and the diluted solution was sprayed onto the soil surface at a rate of 100 liters per 10 ares. The amount of the active ingredient to be applied was equivalent to 7.5 g per 10 ares. Fourteen days after chemical application, the herbicidal effect was evaluated according to the same criteria as in Test Example 1.

[3] = tested on: Echinochloa crus-galli; assay: as above; settings: 1 day after sowing, 7.5 g per 10 ares, 14 days after application
Experimental: as §2, §3

[4] = tested on: Echinochloa crus-galli; assay: Test Example 8: herbicidal effect test by stem and leaf treatment in upland field; settings: 7 days after sowing, 7.5 g per 10 ares, 14 days after application
Experimental: (§4) Herbicidal Effect Test by Stem and Leaf Treatment in Upland Field
as §3, with “Seven days” for “One day”

[5] = tested on: Digitaria ciliaris; assay: Test Example 3: herbicidal effect test by soil application in upland field; settings: 1 day after sowing, 120 g per 10 ares, 14 days after application
Experimental: as §2
as §3, with “120” for “7.5”

[6] = tested on: Chenopodium album; assay: as above; settings: 1 day after sowing, 120 g per 10 ares, 14 days after application
Experimental: as §2
as §3, with “120” for “7.5”

[7] = tested on: Amaranthus viridis; assay: as above; settings: 1 day after sowing, 120 g per 10 ares, 14 days after application
Experimental: as §2
as §3, with “120” for “7.5”

[8] = tested on: Echinochloa crus-galli; assay: as above; settings: 1 day after sowing, 120 g per 10 ares, 14 days after application
Experimental: as §2
as §3, with “120” for “7.5”

[9] = tested on: Digitaria ciliaris; assay: Test Example 4: herbicidal effect test by stem and leaf treatment in upland field; settings: 7 days after sowing, 120 g per 10 ares, 14 days after application
Experimental: as §4
as §3, with “Seven days” for “One day”, “120” for “7.5”

[10] = tested on: Echinochloa crus-galli; assay: as above; settings: 7 days after sowing, 120 g per 10 ares, 14 days after application
Experimental: as §4
as §3, with “Seven days” for “One day”, “120” for “7.5”

[11] = tested on: Echinochloa crus-galli var. formosensis; assay: Test Example 2: herbicidal effect test by application during growth period of paddy rice; settings: 7 days after sowing, 120 g per 10 ares, 14 days after application
Experimental: as §1
(§5) Wagner pots with an area of 1/10,000 […] were filled with paddy soil, followed by addition of water and incorporation of chemical fertilizer (N:P:K=16:16:16), after which puddling was performed. After that, seeds of Echinochloa crus-galli var. formosensis, broad-leaved weeds (Lindemia pyxidaria, and Monochoria vaginalis), and Scirpus juncoides were sown at a depth of 0 cm to 1 cm, 30 seeds each. Immediately after sowing, the pots were flooded and a water depth of approximately 3 cm was maintained. Subsequent management was conducted in a glass greenhouse. Seven days after sowing, an emulsifiable concentrate prepared according to Formulation Example 5 using the compound shown below was diluted with water, and a specified amount of the diluted solution was applied by dropper. The amount of the active ingredient to be applied was equivalent to 120 g per 10 ares. The test was conducted in duplicate for each chemical concentration group, and the herbicidal effect was evaluated 14 days after chemical application using the same criteria as in Test Example 1.

[12] = tested on: Echinochloa crus-galli var. formosensis; assay: Test Example 1: herbicidal effect test by soil application in paddy rice; settings: 120 g per 10 ares, 14 days after application
Experimental: (§6) Herbicidal Effect Test by Soil Application in Paddy Rice
as §5, with “(Lindernia pyxidaria” for “(Lindemia pyxidaria,”, “Immediately thereafter,” for “Seven days after sowing,”, “ares.” for “ares. The test was conducted in duplicate for each chemical concentration group, and the herbicidal effect was evaluated 14 days after chemical application using the same criteria as in Test Example 1.”
(§7) The present test was conducted in duplicate for each chemical concentration group, and the weed inhibition rate (%) was determined 14 days after chemical application using the following formula (Math. 1).

[13] = tested on: Scirpus juncoides; assay: as above; settings: 120 g per 10 ares, 14 days after application
Experimental: as §6
as §5, with “(Lindernia pyxidaria” for “(Lindemia pyxidaria,”, “Immediately thereafter,” for “Seven days after sowing,”, “ares.” for “ares. The test was conducted in duplicate for each chemical concentration group, and the herbicidal effect was evaluated 14 days after chemical application using the same criteria as in Test Example 1.”
as §7

[14] = tested on: Echinochloa crus-galli var. formosensis; assay: Test Example 5: herbicidal effect test by soil application in paddy rice; settings: 7.5 g per 10 ares, 14 days after application
Experimental: as §6
as §5, with “Immediately thereafter,” for “Seven days after sowing,”, “7.5” for “120”, “ares.” for “ares. The test was conducted in duplicate for each chemical concentration group, and the herbicidal effect was evaluated 14 days after chemical application using the same criteria as in Test Example 1.”
(§8) The present test was conducted in duplicate for each chemical concentration group, and the herbicidal effect was evaluated 14 days after chemical application using the same criteria as in Test Example 1.

[15] = tested on: Scirpus juncoides; assay: as above; settings: 7.5 g per 10 ares, 14 days after application
Experimental: as §6
as §5, with “Immediately thereafter,” for “Seven days after sowing,”, “7.5” for “120”, “ares.” for “ares. The test was conducted in duplicate for each chemical concentration group, and the herbicidal effect was evaluated 14 days after chemical application using the same criteria as in Test Example 1.”
as §8

Row | Compound | inhibition at 75 g/ha [1] [%] | weed inhibition rate [2] [%] | weed inhibition rate [3] [%] | weed inhibition rate [4] [%] | weed inhibition rate [5] [%] | weed inhibition rate [6] [%] | weed inhibition rate [7] [%] | weed inhibition rate [8] [%] | weed inhibition rate [9] [%] | weed inhibition rate [10] [%] | weed inhibition rate [11] [%] | weed inhibition rate [12] [%] | weed inhibition rate [13] [%] | weed inhibition rate [14] [%] | weed inhibition rate [15] [%]
1 | C=C1C(OCc2ccccc2C)C2(C)CCC1(C(C)C)O2 (stereo not drawn) | 20 |  |  |  |  |  |  |  |  |  |  |  |  |  | 
2 | CC(C)[C@]12C[C@@H](OCc3ccccc3C(F)(F)F)[C@](C)(CC1=O)O2 [2-29, (1R,4S5R)-1-isopropyl-4-methyl-5-((2-(trifluoromethyl)benzyl)oxy)-7-oxabicyclo[2.2.1]heptan-2-one] |  | ≥ 80 | ≥ 80 | ≥ 80 | ≥ 80 | ≥ 80 | ≥ 80 | ≥ 80 | ≥ 80 | ≥ 80 | ≥ 80 | ≥ 80 | ≥ 80 | ≥ 80 | ≥ 80
